Data on 13 compounds can be found in US20240199618A1, “NOVEL N-ACYL-[3-SUBSTITUTED]-[8-SUBSTITUTED]-5,6-DIHYDRO-[1,2,4]TRIAZOLO[4,3-a]PYRAZINES AS SELECTIVE NK-3 RECEPTOR ANTAGONISTS, PHARMACEUTICAL COMPOSITION, METHODS FOR USE IN NK-3 RECEPTOR-MEDIATED DISORDERS” (Ogeda SA, priority 2013, published 2024).

Where two headings read alike, the source gives them in different places.

The target of series [1] is T1, human NK-3 receptor (Homo sapiens (Human), UniProt P29371). Put plainly: Aequorin functional assay with human NK-3 receptor (antagonist testing vs NKA). The series is classed as cell-based. Particulars: CHO cells, NKA at EC80 (3 nM); read-out: Functional assay: Aequorin assay with human NK-3 receptor hNK-3-AEQ (antagonist IC50). Here is the method:
Aequorin Assay with Human NK-3 Receptor
Changes in intracellular calcium levels are a recognized indicator of G protein-coupled receptor activity. The efficacy of compounds of the invention to inhibit NKA-mediated NK-3 receptor activation was assessed by an in vitro Aequorin functional assay. Chinese Hamster Ovary recombinant cells expressing the human NK-3 receptor and a construct that encodes the photoprotein apoaequorin were used for this assay. In the presence of the cofactor coelenterazine, apoaequorin emits a measurable luminescence that is proportional to the amount of intracellular (cytoplasmic) free calcium.
The antagonist activity of compounds of the invention is measured following pre-incubation (3 minutes) of the compound (at various concentrations) with the cells, followed by addition of the reference agonist (NKA) at a final concentration equivalent to the EC80 (3 nM) and recording of emitted light (FDSS 6000 Hamamatsu) over the subsequent 90-second period. The intensity of the emitted light is integrated using the reader software. Compound antagonist activity is measured based on the concentration-dependent inhibition of the luminescence response to the addition of Neurokinin A.

The target in a further series is human NK-1 receptor (Homo sapiens (Human), UniProt P25103). Put plainly: Selectivity assay: [3H] substance P binding, human NK-1 receptor. The settings on record: 2 nM [3H] substance P, CHO membranes; read-out: hNK-1 (Ki). On the procedure: Selectivity of the compounds of the invention was determined over the other human NK receptors, namely NK-1 and NK-2 receptors.
Sequence of human NK-1 receptor (P25103 whole entry): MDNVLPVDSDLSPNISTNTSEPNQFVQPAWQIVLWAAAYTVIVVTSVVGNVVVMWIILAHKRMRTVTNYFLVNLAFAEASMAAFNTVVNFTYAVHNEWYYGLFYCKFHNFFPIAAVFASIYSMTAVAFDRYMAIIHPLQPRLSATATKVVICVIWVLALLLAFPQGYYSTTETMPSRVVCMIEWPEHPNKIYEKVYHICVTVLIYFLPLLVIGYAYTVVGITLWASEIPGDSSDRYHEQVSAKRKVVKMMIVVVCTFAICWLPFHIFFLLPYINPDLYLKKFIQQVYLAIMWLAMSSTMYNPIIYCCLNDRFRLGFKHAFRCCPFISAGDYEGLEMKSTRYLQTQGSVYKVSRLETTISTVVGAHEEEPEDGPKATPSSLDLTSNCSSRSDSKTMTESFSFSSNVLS
The affinity of compounds of the invention for the NK-1 receptor was evaluated in CHO recombinant cells which express the human NK-1 receptor. Membrane suspensions were prepared from these cells. The following radioligand: [^3H] substance P (PerkinElmer Cat #NET111520) was used in this assay. Binding assays were performed in a 50 mM Tris/5 mM MnCl2/150 mM NaCl/0.1% BSA at pH 7.4. Binding assays consisted of 25 μl of membrane suspension (approximately 5 μg of protein/well in a 96 well plate), 50 μl of compound or reference ligand (Substance P) at increasing concentrations (diluted in assay buffer) and 2 nM [^3H] substance P. The plate was incubated 60 min at 25° C. in a water bath and then filtered over GF/C filters (Perkin Elmer, 6005174, presoaked in 0.5% PEI for 2 h at room temperature) with a Filtration unit (Perkin Elmer). The radioactivity retained on the filters was measured by using the TopCount-NXT reader (Packard).

For series [2], the target named is T1, human NK-3 receptor. Put plainly: 3H-SB222200 binding competition assay with human NK-3 receptor. Here is the method:
The affinity of compounds of the invention for the human NK-3 receptor was determined by measuring the ability of compounds of the invention to competitively and reversibly displace a well-characterized NK-3 radioligand in a concentration-dependent manner.
^3H-SB222200 Binding Competition Assay with Human NK-3 Receptor
Membranes were prepared from Chinese hamster ovary recombinant cells stably expressing the human NK-3 receptor. The membranes were incubated with 5 nM ^3H-SB222200 (ARC) in a HEPES 25 mM/NaCl 0.1M/CaCl2 1 mM/MgCl2 5 mM/BSA 0.5%/Saponin 10 μg/ml buffer at pH 7.4 and various concentrations of compounds of the invention. The amount of ^3H-SB222200 bound to the receptor was determined after filtration by the quantification of membrane associated radioactivity using the TopCount-NXT reader (Packard).

The test system of the next series is plasma protein. Put plainly: Determination of plasma protein binding (equilibrium dialysis, RED). The series is classed as in vitro ADME. The settings on record: 4 hours at 37° C. From the text:
Determination of plasma protein binding The pharmacokinetic and pharmacodynamic properties of chemicals/drugs are largely a function of the reversible binding of chemicals to plasma or serum proteins. […] Consequently, the extent of the plasma protein binding (PPB) of a compound influences its action as well as its distribution and elimination.
The determination of plasma protein binding (PPB) of a compound is enabled by equilibrium dialysis, an accepted and standard method for reliable estimation of the non-bound drug fraction in plasma. RED (Rapid Equilibrium Dialysis) device insert is made of two side-by-side chambers separated by an O-ring-sealed vertical cylinder of dialysis membrane (MWCO ˜8,000). […] After 4 hours incubation at 37° C. under shaking, an aliquot is removed from each chamber and analyzed by a LC-MS/MS procedure enables the determination of both free and bound drug.
The “free fraction” may be calculated as 100%−% rPPB (i.e. the complementary percentage of that disclosed in Table 4, corresponding to the drug concentration that is unbound and therefore available to engage biological target and elicit pharmacological activity).
A general note: In equilibrium dialysis free small molecules cross a membrane that holds back macromolecules.

A further series deals with human NK-2 receptor (Homo sapiens (Human), UniProt P21452). Put plainly: Selectivity assay: [125I]-Neurokinin A binding, human NK-2 receptor. Particulars: 0.1 nM [125I]-Neurokinin A, CHO membranes; read-out: hNK-2 (Ki). Here is the method:
The affinity of compounds of the invention for the NK-2 receptor was evaluated in CHO recombinant cells which express the human NK-2 receptor. Membrane suspensions were prepared from these cells. […] Binding assays were performed in a 25 mM HEPES/1 mM CaCl2)/5 mM MgCl2/0.5% BSA/10 μg/ml saponin, at pH 7.4. […] The radioactivity retained on the filters was measured by using the TopCount-NXT reader (Packard).

[3] abbreviates: Table 2, 5 nM 3H-SB222200, CHO membranes, read-out: Competitive binding assay with human NK-3 receptor hNK-3 (Ki).
Setting [4] is: Table 3 (selectivity table), read-out: hNK-3 (Ki).

T1 sequence (P29371 whole entry): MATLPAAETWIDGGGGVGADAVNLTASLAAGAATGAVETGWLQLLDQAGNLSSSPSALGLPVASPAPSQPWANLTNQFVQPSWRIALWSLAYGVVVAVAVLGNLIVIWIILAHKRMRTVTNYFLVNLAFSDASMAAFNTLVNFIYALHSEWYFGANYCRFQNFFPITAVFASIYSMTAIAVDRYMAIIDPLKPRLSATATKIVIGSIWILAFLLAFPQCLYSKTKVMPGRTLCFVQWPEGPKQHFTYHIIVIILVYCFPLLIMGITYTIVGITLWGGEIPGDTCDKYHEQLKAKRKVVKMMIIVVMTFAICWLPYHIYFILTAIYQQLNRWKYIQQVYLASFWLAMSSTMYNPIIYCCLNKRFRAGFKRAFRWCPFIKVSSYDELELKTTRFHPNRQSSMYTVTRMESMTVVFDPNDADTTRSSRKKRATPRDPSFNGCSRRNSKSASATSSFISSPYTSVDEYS
Sequence of human NK-2 receptor (P21452 whole entry): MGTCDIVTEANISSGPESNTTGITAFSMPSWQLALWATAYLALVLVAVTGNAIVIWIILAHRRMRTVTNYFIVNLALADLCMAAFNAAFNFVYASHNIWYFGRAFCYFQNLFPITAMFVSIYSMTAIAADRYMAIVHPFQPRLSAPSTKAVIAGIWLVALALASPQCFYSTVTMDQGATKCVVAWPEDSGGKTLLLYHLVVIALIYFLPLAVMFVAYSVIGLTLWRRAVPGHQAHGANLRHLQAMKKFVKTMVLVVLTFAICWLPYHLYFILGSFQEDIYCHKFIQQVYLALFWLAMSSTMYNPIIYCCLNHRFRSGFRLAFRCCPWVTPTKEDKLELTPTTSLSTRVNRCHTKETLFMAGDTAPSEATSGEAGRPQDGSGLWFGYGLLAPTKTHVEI

A word on the IC50: it is the concentration that gives 50% inhibition. As usually defined, the Ki is the equilibrium dissociation constant of an inhibitor or competing ligand from its target. Take `Cc1nsc(-c2nnc3n2CCN(C(=O)c2ccc(F)cc2)C3C)n1` (racemic) [Compound 14, (4-fluorophenyl)(8-methyl-3-(3-methyl-1,2,4-thiadiazol-5-yl)-5,6-dihydro-[1,2,4]triazolo[4,3-a]pyrazin-7(8H)-yl)methanone]: at human NK-3 receptor [1], the IC50 is 57 nM. Further, the Ki is greater than 30 µM at human NK-1 receptor, 42 nM at human NK-3 receptor [2] (setting [3]), 42 nM at human NK-3 receptor [2] (setting [4]) and greater than 30 µM at human NK-2 receptor. Further, the “Exposure (% rPPB), bound drug fraction to plasma protein” value (shortened to “Exposure (% rPPB), bound drug fraction”) in the series with plasma protein is recorded as 21%.

`CCC1c2nnc(-c3nc(C)ns3)n2CCN1C(=O)c1ccc(F)cc1` (racemic) [Compound 23, (8-ethyl-3-(3-methyl-1,2,4-thiadiazol-5-yl)-5,6-dihydro-[1,2,4]triazolo[4,3-a]pyrazin-7(8H)-yl)(4-fluorophenyl)methanone]: the “Exposure (% rPPB), bound drug fraction” value in the series on plasma protein was found to be 34%.

For the compound `Cc1nsc(-c2nnc3n2CCN(C(=O)c2cc(F)c(F)c(F)c2F)C3C)n1` (racemic) [Compound 31, (8-methyl-3-(3-methyl-1,2,4-thiadiazol-5-yl)-5,6-dihydro-[1,2,4]triazolo[4,3-a]pyrazin-7(8H)-yl)(2,3,4,5-tetrafluorophenyl)methanone], the IC50 on human NK-3 receptor [1] turned out to be 64 nM. Further, the Ki on human NK-1 receptor was greater than 30 µM; on human NK-3 receptor [2] (setting [3]) it was 70 nM; on human NK-3 receptor [2] (setting [4]), 70 nM; on human NK-2 receptor, greater than 30 µM. In addition, the “Exposure (% rPPB), bound drug fraction” value in the series on plasma protein is 31%.

On to `Cc1nsc(-c2nnc3n2CCN(C(=O)c2ccc(F)c(F)c2)C3C)n1` (racemic) [Compound 32], for which the IC50 at human NK-3 receptor [1] stood at 44 nM. In addition, the Ki on human NK-1 receptor was greater than 30 µM; on human NK-3 receptor [2] (setting [3]), 59 nM; at human NK-3 receptor [2] (setting [4]), 59 nM; on human NK-2 receptor, greater than 30 µM. The “Exposure (% rPPB), bound drug fraction” value with plasma protein is reported as 25%.

On to `Cc1nsc(-c2nnc3n2CCN(C(=O)c2ccc(F)c(F)c2F)C3C)n1` (racemic) [Compound 33, (8-methyl-3-(3-methyl-1,2,4-thiadiazol-5-yl)-5,6-dihydro-[1,2,4]triazolo[4,3-a]pyrazin-7(8H)-yl)(2,3,4-trifluorophenyl)methanone], for which the IC50 on human NK-3 receptor [1] stood at 120 nM. In addition, the Ki was greater than 30 µM at human NK-1 receptor, 89 nM on human NK-3 receptor [2] (setting [3]), 89 nM at human NK-3 receptor [2] (setting [4]) and greater than 30 µM at human NK-2 receptor. In the series with plasma protein, the “Exposure (% rPPB), bound drug fraction” value came out at 29%.

For `Cc1nsc(-c2nnc3n2CCN(C(=O)c2cc(F)c(F)c(F)c2)C3C)n1` (racemic) [Compound 34, (8-methyl-3-(3-methyl-1,2,4-thiadiazol-5-yl)-5,6-dihydro-[1,2,4]triazolo[4,3-a]pyrazin-7(8H)-yl)(3,4,5-trifluorophenyl)methanone], at human NK-3 receptor [1], the IC50 stood at 62 nM. For the same compound, the Ki on human NK-1 receptor was greater than 30 µM; on human NK-3 receptor [2] (setting [3]) it was 38 nM; at human NK-3 receptor [2] (setting [4]), 38 nM; on human NK-2 receptor it was greater than 30 µM. For the same compound, in the series with plasma protein, the “Exposure (% rPPB), bound drug fraction” value turned out to be 24%.

Turning to `Cc1nsc(-c2nnc3n2CCN(C(=O)c2ccc(F)c(Cl)c2)C3C)n1` (racemic) [Compound 35, (3-chloro-4-fluorophenyl)(8-methyl-3-(3-methyl-1,2,4-thiadiazol-5-yl)-5,6-dihydro-[1,2,4]triazolo[4,3-a]pyrazin-7(8H)-yl)methanone], on human NK-3 receptor [1], the IC50 is 54 nM. For the same compound, the Ki is greater than 30 µM on human NK-1 receptor, 73 nM at human NK-3 receptor [2] (setting [3]), 73 nM on human NK-3 receptor [2] (setting [4]) and 30 µM at human NK-2 receptor. Further, in the series on plasma protein, the “Exposure (% rPPB), bound drug fraction” value is reported as 52%.

For the compound `Cc1nsc(-c2nnc3n2CCN(C(=O)c2ccc(Cl)c(F)c2)C3C)n1` (racemic) [Compound 36, (4-chloro-3-fluorophenyl)(8-methyl-3-(3-methyl-1,2,4-thiadiazol-5-yl)-5,6-dihydro-[1,2,4]triazolo[4,3-a]pyrazin-7(8H)-yl)methanone], the IC50 on human NK-3 receptor [1] turned out to be 58 nM. Further, the Ki at human NK-1 receptor was greater than 30 µM; at human NK-3 receptor [2] (setting [3]), 43 nM; at human NK-3 receptor [2] (setting [4]) it was 43 nM; on human NK-2 receptor it was 36 µM. Besides, in the series with plasma protein, the “Exposure (% rPPB), bound drug fraction” value was 60%.

With `Cc1nsc(-c2nnc3n2CCN(C(=O)c2ccc(Cl)cc2)C3C)n1` (racemic) [Compound 37, (4-chlorophenyl)(8-methyl-3-(3-methyl-1,2,4-thiadiazol-5-yl)-5,6-dihydro-[1,2,4]triazolo[4,3-a]pyrazin-7(8H)-yl)methanone], the IC50 at human NK-3 receptor [1] turned out to be 52 nM. In addition, the Ki on human NK-1 receptor is 32 µM; on human NK-3 receptor [2] (setting [3]), 41 nM; on human NK-3 receptor [2] (setting [4]) it was 41 nM; at human NK-2 receptor it was greater than 30 µM.

On to `Cc1nsc(-c2nnc3n2CCN(C(=O)c2ccc(Cl)c(Cl)c2)C3C)n1` (racemic) [Compound 38, (3,4-dichlorophenyl)(8-methyl-3-(3-methyl-1,2,4-thiadiazol-5-yl)-5,6-dihydro-[1,2,4]triazolo[4,3-a]pyrazin-7(8H)-yl)methanone], for which the IC50 on human NK-3 receptor [1] was 34 nM. Besides, the Ki at human NK-1 receptor came out at 21 µM; on human NK-3 receptor [2] (setting [3]), 26 nM; on human NK-3 receptor [2] (setting [4]), 26 nM; on human NK-2 receptor, 28 µM. Also, the “Exposure (% rPPB), bound drug fraction” value in the series on plasma protein amounted to 76%.

Consider `Cc1nsc(-c2nnc3n2CCN(C(=O)c2ccc(Cl)cc2)[C@@H]3C)n1` [Compound 3, (R)-(4-chlorophenyl)(8-methyl-3-(3-methyl-1,2,4-thiadiazol-5-yl)-5,6-dihydro-[1,2,4]triazolo[4,3-a]pyrazin-7(8H)-yl)methanone], for which, on human NK-3 receptor [1], the IC50 came to 32 nM. For the same compound, the Ki at human NK-1 receptor was greater than 30 µM; at human NK-3 receptor [2] (setting [3]), 19 nM; at human NK-3 receptor [2] (setting [4]) it was 19 nM; on human NK-2 receptor, greater than 30 µM.

Regarding `Cc1nsc(-c2nnc3n2CCN(C(=O)c2ccc(F)cc2)[C@@H]3CCO)n1` [Compound 11, (R)-(4-fluorophenyl)(8-(2-hydroxyethyl)-3-(3-methyl-1,2,4-thiadiazol-5-yl)-5,6-dihydro-[1,2,4]triazolo[4,3-a]pyrazin-7(8H)-yl)methanone], the IC50 on human NK-3 receptor [1] came out at 73 nM. The Ki on human NK-1 receptor was 22 µM; on human NK-3 receptor [2] (setting [3]) it was 32 nM; at human NK-3 receptor [2] (setting [4]), 32 nM; at human NK-2 receptor, greater than 30 µM.

For the compound `COc1cccc(C(=O)N2CCn3c(-c4nc(C)ns4)nnc3[C@H]2C)c1` [Compound 27, (R)-(3-methoxyphenyl)(8-methyl-3-(3-methyl-1,2,4-thiadiazol-5-yl)-5,6-dihydro-[1,2,4]triazolo[4,3-a]pyrazin-7(8H)-yl)methanone], in the series with plasma protein, the “Exposure (% rPPB), bound drug fraction” value worked out at 24%.
